# Measured values taken from patent EP2177218A1, “Regenerative therapy” (Medizinische Universität Wien, priority 2008, dated 2010).
# Entries after “also recorded” stand apart in the source; their conditions may differ.
# Tests used:
# [1] = tested on: OPCs; experiment: TUNEL assay (apoptosis); type: cell-based, Sprague-Dawley rat; conditions: treated OPCs on MPE vs OPCs on PLL control, Fig. 7
# Procedure: Fragmented DNA was detected by incorporation of biotinylated nucleotides at the 3'-OH DNA ends using Terminal Deoxynucleotidyl Transferase recombinant (rTdT) enzyme according to the manufacturer's instruction (Promega). Stained cells were visualized by light microscopy and the percentage of apoptotic nuclei was determined.
# [2] = tested on: OPCs; experiment: OPC differentiation on myelin protein extract (MPE) or myelin substrate, O4 immunocytochemistry, pharmacological agents; type: cell-based, Sprague-Dawley rat; conditions: for max. mean increase of OPC differentiation: 48 hours incubation in differentiation medium, Fig. 4; for mean increase of OPC differentiation: OPCs on myelin (MPE); for OPC differentiation / O4 expression in the presence of myelin inhibitors (result in words): differentiation medium
# Procedure: Primary cultures of oligodendrocyte precursor cells were isolated from PO-P2 neonatal Sprague-Dawley rat forebrains following a Standard protocol (McCarthy et al., J Cell Biol 85 (1980): 890-902) that were adapted for the present purpose (Syed et al. 2008, supra). In brief, hemispheres were stripped free of meninges, after a digestion step the cells were plated into cell culture flasks and mixed glia cultures were grown for approx. 10 days in DMEM medium supplemented with 10% PCS at 37°C and 7,5% CO2. To remove the loosely attached microglia the flasks were shaken for 1 hour at 260rpm on an orbital shaker before being shaken at 260rpm overnight to dislodge the loosely attached oligodendrocyte precursors. OPCs were further purified from contaminating microglia by a differential adhesion step. Subsequently OPCs were plated onto polylysine (PLL)-coated or Substrate coated dishes. To maintain cells at an early precursor stage PDGF-AA (Pepro Tech) and FGF (Pepro Tech) were added (10ng/ml) to SATOs medium. To induce differentiation cells were incubated in SATOs medium supplemented with 0.5% FCS. The purity of each culture was monitored following OPC purification by immunocytochemistry and only cultures with >94% purity were used. In the cultures minor contaminations of microglia that can be detected by isolectin staining and which amount to 4-5% of the cells, as well as by astrocytes (detectable by GFAP) and fibroblasts with distinct morphology, which account for about 1-2% of the cells are present.
# To prepare myelin protein extract (MPE) the pellets were re-suspended in 1% N-octyl β-D-glucopyranoside, 0.2M Sodiumphosphate pH 6.8, 0.1 M Na2SO4 and 1mM EDTA and incubated at 23°C for 2 hours. Following an ultracentrifugation step (100,000 x g, 18°C, 30 min) the supernatants were collected and stored at -20°C until further usage.
# The pooled OPCs harvested as outlined above were seeded at the same density of 20000 cells per well into polylysine (PLL)-coated 8-well chamber slides. Cells were differentiated for 48 hours and subsequently fixed with 4% paraformaldehyde in PBS, permeabilised and blocked with 0.3% Triton X-100 and 10% NGS. To assess the differentiation state of OPCs the cells were incubated with 04 antibody (1:100; Chemicon) for 1 hour in the presence of 0.1% Triton X-100 and 2% NGS, washed, and incubated for another 1 hour with the appropriate fluorescent secondary antibody (Cy3-conjugated antibody 1:100; Jackson Immuno Research) and the nuclei were stained using DAPI (Robinson et al., Dev Biol 216 (1999): 359-368; Syed et al. 2008, supra). It is important to note that permeabilisation of cells results in a punctate representation of the extracellular antigen 04 (Reynolds et al., Curr Opin Biotechnol 4 (1993): 734-738; Weiss et al., J Neurosci 16 (1996): 7599-7609; Syed et al. 2008, supra). Under an Olympus X51 fluorescent microscope using a triple-filter the percentage of O4-positive cells in relation to >100 DAPI-stained nuclei in randomly selected eye fields for each experimental condition were determined. To establish the purity of the OPC cultures immunocytochemistry for A2B5 (1:100; Chemicon) was performed according to the same principles and the percentage of A2B5+ cells to >100 DAPI-stained nuclei in randomly selected eye fields was determined. Only cell cultures with >94% A2B5-pos. cells were used for the present study. To assess the morphological phenotype of OPCs, A2B5+-cells were categorised according to the following criteria: stage 1: mono/bipolar; stage II: multipolar, primary branched; stage III: multipolar, secondary branched; stage IV: secondary branched cells with membranous processes.
# To examine whether ROCK-II and PKC Signal transduction is implicated in the myelin mediated differentiation block, pharmacological inhibitors were added to the culture medium immediately after cell seeding. […]
# [3] = tested on: EB lesions; experiment: In situ hybridisation for cell markers in EB lesions; type: in vivo, Sprague-Dawley rats; conditions: 0,5mg/KG/d s.c.; for number of active OPCs (Nkx2.2): day 7, vs PBS vehicle; for macrophage marker MRSB (immune response): day 7 and day 14, vs PBS vehicle; for number of PDGFR-α positive OPCs in lesions / number of PLP positive cells (mature oligodendrocytes): day 14, vs PBS vehicle
# Procedure: To validate the finding that administration of rolipram promotes CNS remyelination, the experiments were repeated as follows. EB lesions were induced in Sprague-Dawley rats, and rats were treated either with rolipram (0,5mg/KG/d) or PBS vehicle administered via s.c. osmotic pumps implanted 3 days post lesion induction. Animals were sacrificed at day 7 and day 14 post lesion induction and the tissue processed for in situ hybridization. The lesion area was visualized and measured on digitized solochrome cyanine stained sections and the number of cells within the lesion area as detected by ISH was determined.
# PDGFR-α, a general marker for OPCs, was used to determine the presence of OPCs in the lesions.
# Nkx2.2 can be used to detect activated OPCs within remyelinating lesions.
# To detect mature oligodendrocytes, in situ hybridization for PLP was conducted. The extent of remyelination in control animals at 14 days is minimal. As to be expected in control animals the number of PLP positive cells remained unchanged at day 7 and day 14.
# Finally, ISH for MRSB, a marker for macrophages, was used to determine whether rolipram treatment affects the immune response.
# [4] = tested on: CREB; experiment: CREB phosphorylation in OPCs (immunoprecipitation, Western blot for phospho-CREB); type: cell-based, Sprague-Dawley rat; conditions: in the presence of MAI, Fig. 14
# [5] = tested on: demyelinating lesions; experiment: Remyelination in vivo after ethidium bromide lesions, blind ranking of semithin resin sections; set-up: species or system Sprague Dawley rats; conditions: 0.5 mg/kg/d s.c. osmotic pumps, 14 days post lesion induction, preliminary
# Procedure: The in vitro finding that rolipram is able to promote OPC differentiation in the presence of MAI was further developed to confirm remyelination in vivo. For this purpose demyelinating lesions were induced by topic injection of ethidium bromide into white matter tracts of young adult Sprague Dawley rats, and rolipram was applied subcutaneously by continuous osmotic pumps. 0,5mg/KG/d of rolipram was used in the first set of experiments that assessed the rate of remyelination. […] This is the first experiment that succeeded in enhancing the efficiency of remyelination in this model (Fig. 16).
molecule,measurement,setting,value
"12-(2-cyanoethyl)-6,7,12,13-tetrahydro-13-methyl-5-oxo-5H-indolo[2,3-a]pyrrollo[3,4-c]carbazole [Gö6976]","apoptosis, TUNEL positive cells",[1],no differences
same,max. mean increase of OPC differentiation,[2]; OPCs on MPE,269%
same,mean increase of OPC differentiation,"[2]; 50nM, n=3",267%
"[H]/N=C(/N)SCCCn1cc(C2=C(c3cn(C)c4ccccc34)C(=O)NC2=O)c2ccccc21 [BIM, Bisindolylmaleimide IX]",max. mean increase of OPC differentiation,[2]; OPCs on MPE,169%
same,mean increase of OPC differentiation,"[2]; 6.25nM, n=4",169%
"O=S(=O)(c1cccc2cnccc12)N1CCCNCC1 [HA-1077, 1-(5-lsoquinolinesulfonyl)-1H-hexahydro-1,4-diazepine 2 HCI]","apoptosis, TUNEL positive cells",[1],no significant differences
same,mean increase in the number of differentiating OPCs,"[2]; OPCs on MPE, 5µM, 48 hours in differentiation medium, n=4",174%
same,increase of differentiating cells,"[2]; OPCs on MPE, 48h culture in differentiation medium, Fig. 3b",more than 160%
same,OPC differentiation / O4 expression in the presence of myelin inhibitors (result in words),[2]; OPCs on MPE,largely restored
CCCC(=O)Nc1ncnc2c1ncn2[C@@H]1O[C@@H]2COP(=O)([O-])O[C@H]2[C@H]1OC(=O)CCC.[Na+] [db-cAMP],OPC differentiation / O4 expression in the presence of myelin inhibitors (result in words),[2]; OPCs on MPE,partially overcome
NCCCCN [putrescine],OPC differentiation / O4 expression in the presence of myelin inhibitors (result in words),[2]; OPCs on MPE,not the case
same,OPC differentiation / O4 expression in the presence of myelin inhibitors (result in words),"[2]; OPCs on MPE, listed as Putrescine",does not stimulate OPC differentiation
COc1ccc(C2CNC(=O)C2)cc1OC1CCCC1 (centres unmarked) [rolipram],number of active OPCs (Nkx2.2),[3],effectively increased
same,number of active OPCs (Nkx2.2),[3]; listed as Rolipram,increase
same,macrophage marker MRSB (immune response),[3],no differences detected
same,macrophage marker MRSB (immune response),[3]; listed as Rolipram,did not affect the immune response
same,number of PDGFR-α positive OPCs in lesions,[3],remained elevated
same,number of PLP positive cells (mature oligodendrocytes),[3],significant increase
same,number of PDGFR-α positive OPCs in lesions,[3]; listed as Rolipram,maintained levels
same,number of PLP positive cells (mature oligodendrocytes),[3]; listed as Rolipram,strong increase
same,number of Nkx2.2 positive cells,"[3]; later stages (day 14), vs PBS vehicle",reached levels of control animals
same,CREB phosphorylation / activation in OPCs,[4],restores CREB activation
same,CREB phosphorylation / activation in OPCs,[4]; listed as Rolipram,inducing CREB phosphorylation
same,"extent of remyelination, rank assessment",[5],able to promote remyelination in-vivo; also recorded: potently enhanced
same,differentiation capability of OPCs plated on MPE,[2]; 0.5µM in the medium,completely restore
same,OPC differentiation / O4 expression in the presence of myelin inhibitors (result in words),[2]; OPCs on MPE,able to induce OPC differentiation; also recorded: able to restore OPC differentiation
